# Experimental data published in patent US20070254843A1, “Methods for treating bone associated diseases by the use of methionine aminopeptidase-2 inhibitors” (Praecis Pharmaceuticals Incorporated, priority 2006, published 2007).
# Columns and labels:
# [1] = target: T1, MetAP-2 (Rattus norvegicus, UniProt P38062); experiment: MetAP-2 pharmacodynamic assay in wbc lysates; assay type: in vivo; conditions: po, PG-PS arthritis rats, 1 mg/kg p.o. qod, read-out: MetAP-2 in wbc inhibited relative to vehicle-treated group
# T1 construct: wbc from animals of each study group were pooled and cell lysates were prepared as previously described; from tissue; host or cells: white blood cells (wbc) of female Lewis rats, pooled per study group and lysed
# Description: MetAP-2 pharmacodynamic assay. The MetAP-2 assay measures the amount of uninhibited MetAP-2 in cells or tissues which has not been derivitized by prior treatment with the MetAP-2 inhibitor (Bernier (2004) Proc. Natl. Acad. Sci. USA 101: 10768-10773 and Bernier (2005) J. Cell. Biochem. 95: 1191-1203). Briefly, wbc from animals of each study group were pooled and cell lysates were prepared as previously described (Bernier (2004) Proc. Natl. Acad. Sci. USA 101: 10768-10773 and Bernier (2005) J. Cell. Biochem. 95: 1191-1203). 10 μg to 20 μg of wbc protein was incubated with a biotinylated analog of the MetAP-2 inhibitor which covalently binds to the catalytic site of MetAP-2. The biotinylated MetAP-2-inhibitor complex was captured on a plate with immobilized streptavidin (Pierce), and detected with the MetAP-2 antibody CM33 (0.5 μg/ml), followed by horseradish peroxidase-conjugated goat anti-rabbit IgG secondary antibody. The amount of uninhibited MetAP-2 was determined by measuring the absorption at 450 nm using a Labsystems Multiskan plate spectrophotometer. Human recombinant MetAP-2 (Mediomics), pre-bound to the biotinylated MetAP-2 inhibitor, was used to generate the standard curve. The detection limit of this assay was 0.47 ng MetAP-2 protein/mg wbc protein.
# Since the MetAP-2 inhibitor had the ability to inhibit multiple cell types critical for pathogenesis of the bone associated disease, RA, in vitro, it was hypothesized that the observations from the in vitro studies (Example 1) would translate into protection from disease in animals in the PG-PS model of arthritis. The progression of disease in this model follows a biphasic mode, with an early acute, predominantly neutrophil-driven phase which persists to days 6-7, followed by a chronic, T cell dependent phase (evident around day 12), which is characterized by chronic inflammation and erosive synovitis (Palombella (1998) Proc. Natl. Acad. Sci. USA 95:15671-15676). Therapeutic dosing of animals administered the MetAP-2 inhibitor orally (p.o.) at 1, 5 and 10 mg/kg, every other day (qod), or vehicle started at day 15 after the chronic destructive phase of the disease was established and terminated on day 31. […] The amount of uninhibited MetAP-2 in wbc of animals from all treatment groups was measured after conclusion of the study, using the MetAP-2 pharmacodynamic assay (Bernier (2004) Proc. Natl. Acad. Sci. USA 101: 10768-10773 and Bernier (2005) J. Cell. Biochem. 95: 1191-1203). […]
# [2] = system: PG-PS-induced arthritis; experiment: Clinical (histopathological) assessment of PG-PS arthritis, joint histology score; assay type: in vivo, rat; conditions: PG-PS arthritis, 1 mg/kg
# Description: Clinical assessment of PG-PS arthritis. The histopathological evaluation was performed on the left and right hind joints of randomly selected animals from each study group by an independent histopathologist without knowledge of specific interventions. After completion of the study, the left and right hind ankles were removed, fixed in 10% buffered formalin, decalcified in 5% formic acid, paraffin-embedded, sectioned, and H&E stained for histological evaluation. A joint histology scoring system which grades the severity of 4 histopathological processes (cell infiltration, pannus formation, cartilage erosion, bone resorption), was used to quantify hind joint involvement in the PG-PS arthritis model (36). Dependent on the assigned score for each parameter (0=normal, 1=minimal, 2=mild, 3=moderate, 4=marked), the maximum total score per ankle is 16, and 32 per animal.
# It was investigated whether the protective activity of the MetAP-2 inhibitor in this animal model of arthritis, which is characterized by aggressive synovitis, extensive pannus formation, cartilage degradation and focal bone erosion, was mediated through regression in the severity of all clinical indices tested, or whether this activity was targeting specific pathogenic processes.
# A joint histology scoring system which grades the severity of 4 histopathological processes (cell infiltration, pannus formation, cartilage erosion, bone resorption) was used (O'Byrne (1991) Agents and Actions 134:239-241).
# [3] = system: PG-PS-induced arthritis; experiment: Microfocal computed tomography of hind joints in rat PG-PS arthritis model; assay type: in vivo; conditions: PG-PS arthritis, 1 mg/kg; threshold 255
# Description: Microfocal computed tomography. All specimens were scanned on a Scanco Medical AG μCT 40 system. Images were obtained with an isotropic voxel resolution of 20 microns. A matrix size of 1024×1024 with 1000 projections was utilized for all scans. A total of 1836 slices were scanned for each specimen (the number of slices scanned was determined by the length of the scan needed to cover the entire ankle including the distal tibia). The scan time per specimen was approximately 2.6 hours. The images were then volume rendered using a fixed threshold (at two different thresholds: 255 and 140). The total bone volume and BMD were calculated over the same regions of all the specimens. Micro-CT was performed at Scanco USA, Incorporated.
# Finally, the activity of the MetAP-2 inhibitor on the structural preservation of hind joints in rats with established disease was investigated.
# The ankles including the distal tibia were scanned using a Scanco Medical AG μCT 40 system (threshold: 255), and the total bone volume and BMD were calculated over the same regions of all specimens.
# T1 sequence (P38062 whole entry): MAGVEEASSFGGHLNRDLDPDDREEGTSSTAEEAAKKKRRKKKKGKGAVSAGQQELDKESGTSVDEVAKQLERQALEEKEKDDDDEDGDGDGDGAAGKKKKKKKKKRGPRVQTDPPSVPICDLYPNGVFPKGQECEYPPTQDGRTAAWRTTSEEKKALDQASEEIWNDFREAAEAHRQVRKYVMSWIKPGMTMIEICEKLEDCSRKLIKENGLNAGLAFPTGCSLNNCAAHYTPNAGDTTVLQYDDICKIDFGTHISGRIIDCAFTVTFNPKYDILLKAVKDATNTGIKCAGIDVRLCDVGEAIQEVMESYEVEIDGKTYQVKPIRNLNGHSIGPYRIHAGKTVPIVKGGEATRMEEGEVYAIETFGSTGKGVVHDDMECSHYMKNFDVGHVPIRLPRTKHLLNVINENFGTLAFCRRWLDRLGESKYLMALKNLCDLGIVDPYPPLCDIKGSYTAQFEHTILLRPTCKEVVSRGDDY
smiles,measurement,setting,value
"C[C@@H]1C[C@H]2[C@@H]3CCC4=CC(=O)C=C[C@]4(C)[C@@]3(F)[C@@H](O)C[C@]2(C)[C@@]1(O)C(=O)CO [dex, dexamethasone, reference compound]",inhibition at 1 mg/kg,[1],≥ 90%
same,Total arthritis score,[2],2.35 ± 0.23^B
same,Bone Resorption score,[2]; score 0-4,0.95 ± 0.13^B
same,Cartilage erosion score,[2]; score 0-4,0.60 ± 0.14^B
same,Cell infiltration score,[2]; score 0-4,0.25 ± 0.08^A
same,Pannus formation score,[2]; score 0-4,0.55 ± 0.08^A
same,BMD,[3],1125 ± 2.59 mg HA/ccm
same,Bone Volume (Vox-BV),[3],240.7 ± 12.68
